Source: publication PMC5349447, “Applying a high-throughput fluorescence polarization assay for the discovery of chemical probes blocking La:RNA interactions in vitro and in cells” (PLoS ONE, 2017)

System: T1, gfp-tagged La-WT association with cellular mRNAs
T1 construct: full length La (La wildtype, La-WT); expressed in transfected cells
Test: RNA immunoprecipitation (RIP) with RT-qPCR in HEK293 expressing gfp-tagged La
Format: cell-based, human
Details: 150 μM, HEK293 gfpLa
Protocol: RIP experiments were performed with HEK293 stably expressing gfp (green fluorescent protein)-tagged La wiltype (La-WT) protein as described recently. The compound C2:01 was dissolved in 100% DMSO to a concentration of 100 mM. Subsequently, the compound was diluted in media to 10 mM (10% DMSO) and 1 mM (1% DMSO). The 1 mM stock was diluted 6.7-fold in culture media to reach a final concentration of 150 μM (0.15% DMSO). Cells were washed with ice-cold 1x PBS, and lysed by incubating with lysis buffer (20 mM Tris-HCl, (pH 7.4), 150 mM NaCl, 1% IGEPAL CA-630, 10% glycerol, 1 mM EDTA, 50mM NaF, and 1 mM DTT, supplemented with RNase inhibitors and protease inhibitors) on tube rotator for 15 min at 4°C. The cell lysate was sonicated (3 sec for 10 times at power 3, Sonic Dismembrator Model 100) and cleared by centrifugation at 14,000 g at 4°C for 20 min. The cleared lysate was incubated with anti-gfp magnetic beads (MBL International) on the orbital rotor at 4°C overnight. The beads were washed four times with wash buffer I (50 mM Tris-HCl (pH 7.4), 300 mM NaCl, 0.05% IGEPAL CA-630, 20 mM EDTA, 1 mM DTT, and 1 mM MgCl2) and three times with wash buffer II (50 mM Tris-HCl (pH 7.4), 300 mM NaCl, 0.05% IGEPAL CA-630, 20 mM EDTA, 1 mM DTT, 1 mM MgCl2 and 1 M urea)[29].
For preparation of the RNA, the beads were resuspended in wash buffer II and RNA was extracted by applying the Phenol-Chloroform-Isoamyl alcohol method. […] The RNA pellet was dissolved in RNase-DNase-free H2O and quantitated by NanoDrop spectrophotometer and subjected to RT-qPCR analysis. By RT-qPCR the La-specific RIP-RNA pellets (gfp-tagged La) were tested for the presence of Bcl2, CCND1, L37, L22 and S6 mRNA and none of those were detected in the control RIP experiments (gfp alone). The enrichment was calculated by establishing standard curves for specific mRNAs using the RT^2 qPCR Primer Assays (Qiagen): Bcl2 (PPH00079B), CCND1 (PPH00128F), L37 (QT00014105), L22 (QT00079982), S6 (QT02505328) as described recently. […]

Cc1ccc(C(=O)c2ccccc2C(=O)O)c(O)c1 [C2.01, 2-(2-hydroxy-4-methylbenzoyl)benzoic acid]
binding of La to Bcl2 mRNA in cells (RIP): selectively impaired | binding of La to CCND1 mRNA in cells (RIP): selectively impaired | binding of La to TOP mRNAs encoding RPL37, RPL5 and RPSK6 in cells (RIP): no effect
